Data from patent publication US11726079B2, “Lighting systems and methods of using lighting systems for in vitro potency assay for Photofrin” (Concordia Laboratories, Inc., priority 2012, dated 2023).
Where “and” joins values, the source holds several entries; their conditions need not be identical. Identical values can stand only once. Marks after values point to notes of the source that are not given here.

Test system: A549 human lung carcinoma cells
Test: In vitro potency assay for Photofrin®: A549 cells, 4 h drug absorption, wash, 10 min irradiation at 400-650 nm, 24 h, XTT viability, 4PL EC50
Type: cell-based
Set-up: key to EC50-XTT / EC50 STD / EC50 Test: EC50 as Photofrin concentration in μg/mL (4PL inflection point)
Settings: for EC50 STD / EC50 Test: in µg/mL; for EC50 Test / EC50 Test, Mean: Test (35 μg/mL high test drug concentration)
Description: Cell passaging of A549 cells is performed using fixed seeding densities to reduce assay variation resulting from cell culture conditions. […] Working in very low light conditions, Photofrin® is reconstituted in normal saline to 2.5 mg/mL and diluted further in culture medium at twice the desired final assay concentration, typically 140 μg/mL. A series of two-fold dilutions were then prepared from the 140 μg/mL solution and the diluted drug was added to the cells at 1:1 (v/v) according to the diagram shown in FIG. 11.
[…] The plate is then removed from the incubator, the drug is aspirated, the wells are washed with Dulbecco's phosphate buffered saline (DPBS) and fresh, pre-warmed medium is added to the wells. […] […] The wells covered with foil strips are important controls for the activity of Photofrin® in the absence of irradiation and the effect of light on the cells in the absence of drug.
The optical absorbance of the wells in column 1 (high drug concentration, no cells) is evaluated for absorption at 450 nm to ensure that the drug is not interfering with the XTT assay. The percent viability of each of the wells in columns 2-9 and 11 is calculated relative to the mean value of column 10 (cell control, no drug, no light). For each dose response obtained, a four parameter logistic (4PL) nonlinear regression analysis is performed of the percent viability versus the log-Photofrin® concentration. The point of inflection of the regression curve (C value) is defined as the EC50 and used in the calculation of relative potency. Curve fitting and calculation of the EC50 is performed with Softmax v5.4.2 (Molecular Devices, Inc.) or Prism v.5.04 (GraphPad, Software Inc.) software. The mean percent viability of columns 9 and 11 is also calculated.
• 1. Materials and Reagents • 1.1. A549 Human Lung Carcinoma (ATCC—Cat. No.: CCL-185) • 1.2. 25 cm^2 Flasks (Corning—Cat. No.: 431463, or equivalent) • 1.3. 75 cm^2 Flasks (Corning—Cat. No.: 431464, or equivalent) • 1.4. 50 mL tubes (Fisher Scientific—Cat. No. 17-512F, or equivalent) • 1.5. Hemacytometer • 1.6. RPMI-1640 (+) phenol red (Lonza—Cat. No.: 12-167F, or equivalent) • 1.7. HI-FBS (Gibco—Life Technologies—Cat No.: 10082-147, or equivalent) • 1.8. 200 mM L-Glutamine (Lonza—Cat. No.: 17-605E, or equivalent) • 1.9. 0.25% Trypsin-EDTA (Gibco—Cat. No.: 25200-056, or equivalent) • 2. Instruments • 2.1. Forma Scientific centrifuge with swinging bucket rotor (Model 5682, or equivalent) • 2.2. Water bath set at 37° C. • 2.3. […] Prepared Reagents • 3.1. RPMI-1640 Complete Media • 3.1.1. 500 mL bottle of RPMI-1640 basal media containing phenol red • 3.1.2. Add 50 mL HI-FBS • 3.1.3. Add 5.5 mL of 200 mM L-Glutamine • 4. Procedure • 4.1. Remove one vial of A549 lung carcinoma cells from liquid nitrogen storage and after ensuring that the vial is tightly closed, rapidly thaw vial by holding all but the top of the vial submerged in a 37° C. water bath until the vial contents begins to thaw but while ice still remains. • 4.2. Liberally spray the vial with 70% ethanol, wipe with tissue, and place into a laminar flow hood. • 4.3. Transfer the contents of the vial to a 50 mL conical tube containing 9 mL RPMI-1640 complete medium containing phenol red (Step 3.1) (hereafter referred to as complete medium in this method). • 4.4. Centrifuge the tube in a swing bucket rotor set at 1200 RPM (220 RCF) for five minutes at room temperature. • 4.5. Discard supernatant and gently flick the tube to resuspend the cells in the residual volume left in the tube. • 4.6. Add 5 mL complete medium, transfer the cell solution to a 25 cm^2 flask, and then place the flask into a 37° C. incubator with 5% CO2. • 4.7. Monitor the flask daily and when the cells reach approximately 80% confluence, remove the media, and wash the cells by adding 2 mL DPBS to the flask. Ensure that all cells are rinsed and discard the DPBS. • 4.8. Add 1 mL 0.25% trypsin-EDTA to prewash the cells, tip flask to coat all cells, and discard the trypsin. • 4.9. […]

## porfimer sodium [Photofrin®]
FIG. 12, standard preparation versus preparation containing half of the nominal activity
  ratio of the standard to test sample EC50: 0.5
Standard sample (70 μg/mL high test drug concentration), A549 cells at passage P10
  EC50 STD: 10.5
Standard sample (70 μg/mL high test drug concentration), A549 cells at passage P17
  EC50 STD: 10.1
Standard sample (70 μg/mL high test drug concentration), Inter-operator Assay, AB-1
  EC50 STD: 6.37
Standard sample (70 μg/mL high test drug concentration), Inter-operator Assay, AB-2
  EC50 STD: 8.23
Standard sample (70 μg/mL high test drug concentration), Inter-operator Assay, mean of operator AB plates
  EC50 STD, Mean: 7.3 µg/mL
Standard sample (70 μg/mL high test drug concentration), Photofrin® absorption time 3.5 hours
  EC50 STD: 10.4
Standard sample (70 μg/mL high test drug concentration), absorption time 4.0 hours
  EC50 STD: 10.2
Standard sample (70 μg/mL high test drug concentration), absorption time 4.5 hours
  EC50 STD: 9.23
Standard sample (70 μg/mL high test drug concentration), irradiation time 8 minutes
  EC50 STD: 12.0
Standard sample (70 μg/mL high test drug concentration), irradiation time 9 minutes
  EC50 STD: 12.0
Standard sample (70 μg/mL high test drug concentration), irradiation time 10 minutes
  EC50 STD: 11.1
Standard sample (70 μg/mL high test drug concentration), irradiation time 11 minutes
  EC50 STD: 11.6
Standard sample (70 μg/mL high test drug concentration), irradiation time 12 minutes
  EC50 STD: 10.8
Standard sample (70 μg/mL high test drug concentration), operator AB Pilot Assay-1
  EC50 STD: 6.62
Standard sample (70 μg/mL high test drug concentration), operator AB Pilot Assay-2
  EC50 STD: 6.76
Standard sample (70 μg/mL high test drug concentration), post-irradiation incubation time 22 hours
  EC50 STD: 9.16
Standard sample (70 μg/mL high test drug concentration), post-irradiation incubation time 24 hours
  EC50 STD: 10.2
Standard sample (70 μg/mL high test drug concentration), post-irradiation incubation time 26 hours
  EC50 STD: 9.55
Standard sample (70 μg/mL high test drug concentration), post-irradiation temperature 35° C.
  EC50 STD: 9.68
Standard sample (70 μg/mL high test drug concentration), post-irradiation temperature 37° C. (nominal, two experiments)
  EC50 STD: 10.8 and 9.9
Standard sample (70 μg/mL high test drug concentration), post-irradiation temperature 39° C.
  EC50 STD: 8.32
Standard sample, 70 μg/mL high test concentration, Plate 1 (placement Standard, Test; left to right dilution; controls in columns 9-11)
  Standard Sample EC50: 11.1 µg/mL
Standard sample, 70 μg/mL high test concentration, Plate 2 (placement Test, Standard; left to right dilution; controls in columns 9-11)
  Standard Sample EC50: 10.7 µg/mL
Standard sample, 70 μg/mL high test concentration, Plate 3 (right to left dilution; controls in columns 9-11)
  Standard Sample EC50: 11.2 µg/mL
Standard sample, 70 μg/mL high test concentration, Plate 4 (placement Standard, Test; left to right dilution; controls in columns 9-11)
  Standard Sample EC50: 11 µg/mL
Standard sample, 70 μg/mL high test concentration, Plate 5 (left to right dilution; controls in columns 2-4)
  Standard Sample EC50: 10.8 µg/mL
Standard sample, 70 μg/mL high test concentration, mean across Plates 1-5 of positional analysis
  Standard Sample EC50, Mean: 11 µg/mL
A549 cells at passage P10, wide confidence interval due to poor curve fitting
  EC50 Test: 18.9**
A549 cells at passage P17
  EC50 Test: 19.2
Inter-operator Assay, AB-1
  EC50 Test: 13.7
Inter-operator Assay, AB-2
  EC50 Test: 14.6
Inter-operator Assay, mean of operator AB plates
  EC50 Test, Mean: 14.2 µg/mL
Inter-operator Assay, mean of operator KP plates
  EC50 Test, Mean: 20 µg/mL
Inter-operator Assay, operator KP, both plates KP-1
  EC50 Test: 20.1 and 19.8
Absorption time 3.5 hours
  EC50 Test: 19.5
Absorption time 4.0 hours
  EC50 Test: 20.1
Absorption time 4.5 hours
  EC50 Test: 16.1
Irradiation time 8 minutes
  EC50 Test: 24.5
Irradiation time 9 minutes
  EC50 Test: 25.2
Irradiation time 10 minutes
  EC50 Test: 22.8
Irradiation time 11 minutes
  EC50 Test: 20.9
Irradiation time 12 minutes
  EC50 Test: 21.0
Operator AB Pilot Assay-1
  EC50 Test: 16.1
Operator AB Pilot Assay-2
  EC50 Test: 12.6
post-irradiation incubation time 22 hours
  EC50 Test: 16.7
post-irradiation incubation time 24 hours
  EC50 Test: 18.9
post-irradiation incubation time 26 hours
  EC50 Test: 16.6
post-irradiation temperature 35° C.
  EC50 Test: 21.6
post-irradiation temperature 37° C. (nominal, two experiments)
  EC50 Test: 19.9 and 20.0
post-irradiation temperature 39° C.
  EC50 Test: 16.1
Seeding density 0.8 × 10^4 cells/well
  EC50 Test: 21.1
Seeding density 1.2 × 10^4 cells/well
  EC50 Test: 27.9
Seeding density 1.9 × 10^4 cells/well
  EC50 Test: 21.3
